{
  "source": "paper PMC12587545",
  "about": "“Noncytotoxic polymyxin derivatives enhance antibiotic action against multidrug-resistant Gram-negative bacteria” (Antimicrobial Agents and Chemotherapy, 2025)",
  "key": {"[1]": {"tested_on": "E. coli", "experiment": "Checkerboard assay (antibiotic potentiation)", "assay_type": "cell-based, Escherichia coli", "conditions": "for MICantibiotic + compound: antibiotic MIC with 8 µg/mL (5 µM) compound 1; for MICantibiotic: antibiotic alone; for Potentiation: of antibiotic by 8 µg/mL (5 µM) compound 1"}, "[2]": {"tested_on": "MDR Gram-negative bacteria clinical isolates", "experiment": "Checkerboard assay, summary over strains", "assay_type": "cell-based", "conditions": "of all 14 clinical isolates; number (%)"}, "[3]": {"tested_on": "P. aeruginosa 259-96916", "experiment": "Time-kill kinetics assay"}, "[4]": {"tested_on": "A. baumannii", "experiment": "Checkerboard assay (antibiotic potentiation)", "assay_type": "cell-based, Acinetobacter baumannii"}, "[5]": {"tested_on": "E. cloacae", "experiment": "Checkerboard assay (antibiotic potentiation)", "assay_type": "cell-based, Enterobacter cloacae", "conditions": "E. cloacae 121887 (colistin-resistant)"}, "[6]": {"conditions": "E. coli 94393 (colistin-resistant)"}, "[7]": {"conditions": "E. coli 94474 (colistin-resistant)"}, "[8]": {"conditions": "A. baumannii 110193, antibiotic + compound 1"}, "[9]": {"conditions": "A. baumannii ATCC 17978, 0% FBS, zoliflodacin + compound 1"}, "[10]": {"conditions": "A. baumannii ATCC 17978, [Mg2+] 25 mM, zoliflodacin + compound 1"}, "[11]": {"conditions": "A. baumannii ATCC 17978, [Mg2+] 0.4–0.5 mM, zoliflodacin + compound 1"}, "[12]": {"conditions": "A. baumannii ATCC 17978, antibiotic + compound 1"}},
  "note": "Several values for one entry are separate records, joined by “and”; a condition that tells them apart may be missing. Equal entries are not always repeated. Where two headings read alike, the source gives them in different places.",
  "data": [
    {"smiles": "C[C@@H]1CN2c3c(cc4c(N5C(=O)OC[C@@H]5C)noc4c3F)CC3(C(=O)NC(=O)NC3=O)[C@H]2[C@H](C)O1", "note": "[Zoliflodacin]", "values": [
      {"measurement": "MICantibiotic + compound", "setting": "[1]; [6]", "result": 2, "unit": "µg/mL"},
      {"measurement": "MICantibiotic", "setting": "[1]; [6]", "result": 64, "unit": "µg/mL"},
      {"measurement": "Potentiation", "setting": "[1]; [6]", "result": 32, "unit": "fold"},
      {"measurement": "Interpretation", "setting": "[1]; E. coli 94474 (colistin-resistant), antibiotic + compound 1", "result": "Synergy (FIC indices of ≤0.5 is synergistic)"},
      {"measurement": "MICantibiotic + compound", "setting": "[1]; [7]", "result": 4, "unit": "µg/mL"},
      {"measurement": "MICantibiotic", "setting": "[1]; [7]", "result": 64, "unit": "µg/mL"},
      {"measurement": "Potentiation", "setting": "[1]; [7]", "result": 16, "unit": "fold"},
      {"measurement": "clinical isolates in which the antibiotic was synergized by compound 1", "setting": "[2]", "result": "12 (86%) strains"},
      {"measurement": "time-kill outcome", "setting": "[3]; 0.5 µg/mL zoliflodacin + 8 µg/mL (5 µM) compound 1", "result": "bacteriostatic effect"},
      {"measurement": "time-kill outcome", "setting": "[3]; 8 µg/mL zoliflodacin + 8 µg/mL (5 µM) compound 1", "result": "complete sterilization was achieved after 24 h"},
      {"measurement": "time-kill outcome", "setting": "[3]; monotherapy at 8 µg/mL, LB, 37°C, up to 24 h", "result": "growth curve similar to that of untreated bacteria"},
      {"measurement": "decrease in bacterial load from the starting inoculum and from the most active monotherapy", "setting": "[3]; zoliflodacin + compound 1, both 8 µg/mL, after 24 h", "result": "≥ 2", "unit": "log10"},
      {"measurement": "MICantibiotic + compound", "setting": "[4]", "result": 0.031, "unit": "µg/mL"},
      {"measurement": "Potentiation", "setting": "[4]", "result": "≥128-fold"},
      {"measurement": "Interpretation", "setting": "[4]; A. baumannii 92247 (colistin-resistant), antibiotic + compound 1", "result": "Synergy (FIC indices of ≤0.5 is synergistic)"},
      {"measurement": "MICantibiotic + compound", "setting": "[4]; A. baumannii 92247 (colistin-resistant), antibiotic MIC with 4 µg/mL (2 µM) compound 1", "result": 0.25, "unit": "µg/mL"},
      {"measurement": "MICantibiotic", "setting": "[4]; A. baumannii 92247 (colistin-resistant), antibiotic alone", "result": 4, "unit": "µg/mL"},
      {"measurement": "Potentiation", "setting": "[4]; A. baumannii 92247 (colistin-resistant), of antibiotic by 4 µg/mL (2 µM) compound 1", "result": "≥16-fold"},
      {"measurement": "FIC index", "setting": "[4]; [8]", "result": 0.156},
      {"measurement": "Interpretation", "setting": "[4]; [8]", "result": "Synergy (FIC indices of ≤0.5 is synergistic)"},
      {"measurement": "MICantibiotic + compound", "setting": "[4]; A. baumannii 110193, antibiotic MIC with 4 µg/mL (2 µM) compound 1", "result": 8, "unit": "µg/mL"},
      {"measurement": "MICantibiotic", "setting": "[4]; A. baumannii 110193, antibiotic alone", "result": 256, "unit": "µg/mL"},
      {"measurement": "Potentiation", "setting": "[4]; A. baumannii 110193, of antibiotic by 4 µg/mL (2 µM) compound 1", "result": 32, "unit": "fold"},
      {"measurement": "Interpretation", "setting": "[4]; A. baumannii AB027, antibiotic + compound 1", "result": "Synergy (FIC indices of ≤0.5 is synergistic)"},
      {"measurement": "MICantibiotic + compound", "setting": "[4]; A. baumannii AB027, antibiotic MIC with 4 µg/mL (2 µM) compound 1", "result": 0.25, "unit": "µg/mL"},
      {"measurement": "MICantibiotic", "setting": "[4]; A. baumannii AB027, antibiotic alone", "result": 16, "unit": "µg/mL"},
      {"measurement": "Potentiation", "setting": "[4]; A. baumannii AB027, of antibiotic by 4 µg/mL (2 µM) compound 1", "result": 64, "unit": "fold"},
      {"measurement": "Interpretation", "setting": "[4]; A. baumannii AB031, antibiotic + compound 1", "result": "Synergy (FIC indices of ≤0.5 is synergistic)"},
      {"measurement": "MICantibiotic + compound", "setting": "[4]; A. baumannii AB031, antibiotic MIC with 4 µg/mL (2 µM) compound 1", "result": 4, "unit": "µg/mL"},
      {"measurement": "MICantibiotic", "setting": "[4]; A. baumannii AB031, antibiotic alone", "result": 128, "unit": "µg/mL"},
      {"measurement": "Potentiation", "setting": "[4]; A. baumannii AB031, of antibiotic by 4 µg/mL (2 µM) compound 1", "result": 32, "unit": "fold"},
      {"measurement": "Potentiation", "setting": "[4]; A. baumannii ATCC 17978, 0% FBS, of zoliflodacin by 4 µg/mL compound 1", "result": "≥128-fold"},
      {"measurement": "FIC index", "setting": "[4]; [9]", "result": 0.258},
      {"measurement": "Interpretation", "setting": "[4]; [9]", "result": "Synergy (FIC indices of ≤0.5 is synergistic)"},
      {"measurement": "MICantibiotic + compound", "setting": "[4]; A. baumannii ATCC 17978, 0% FBS, zoliflodacin MIC with 4 µg/mL compound 1", "result": 0.031, "unit": "µg/mL"},
      {"measurement": "MICantibiotic", "setting": "[4]; A. baumannii ATCC 17978, 0% FBS, zoliflodacin alone", "result": 4, "unit": "µg/mL"},
      {"measurement": "Potentiation", "setting": "[4]; A. baumannii ATCC 17978, 10% FBS, of zoliflodacin by 4 µg/mL compound 1", "result": 32, "unit": "fold"},
      {"measurement": "Interpretation", "setting": "[4]; A. baumannii ATCC 17978, 10% FBS, zoliflodacin + compound 1", "result": "Synergy (FIC indices of ≤0.5 is synergistic)"},
      {"measurement": "MICantibiotic + compound", "setting": "[4]; A. baumannii ATCC 17978, 10% FBS, zoliflodacin MIC with 4 µg/mL compound 1", "result": 0.5, "unit": "µg/mL"},
      {"measurement": "MICantibiotic", "setting": "[4]; A. baumannii ATCC 17978, 10% FBS, zoliflodacin alone", "result": 16, "unit": "µg/mL"},
      {"measurement": "Potentiation", "setting": "[4]; A. baumannii ATCC 17978, 25% FBS, of zoliflodacin by 4 µg/mL compound 1", "result": 8, "unit": "fold"},
      {"measurement": "Interpretation", "setting": "[4]; A. baumannii ATCC 17978, 25% FBS, zoliflodacin + compound 1", "result": "Synergy (FIC indices of ≤0.5 is synergistic)"},
      {"measurement": "MICantibiotic + compound", "setting": "[4]; A. baumannii ATCC 17978, 25% FBS, zoliflodacin MIC with 4 µg/mL compound 1", "result": 2, "unit": "µg/mL"},
      {"measurement": "MICantibiotic", "setting": "[4]; A. baumannii ATCC 17978, 25% FBS, zoliflodacin alone", "result": 16, "unit": "µg/mL"},
      {"measurement": "Potentiation", "setting": "[4]; A. baumannii ATCC 17978, 50% FBS, of zoliflodacin by 4 µg/mL compound 1", "result": 2, "unit": "fold"},
      {"measurement": "Interpretation", "setting": "[4]; A. baumannii ATCC 17978, 50% FBS, zoliflodacin + compound 1", "result": "Additive (0.5 < × ≤ 4 is additive)"},
      {"measurement": "MICantibiotic + compound", "setting": "[4]; A. baumannii ATCC 17978, 50% FBS, zoliflodacin MIC with 4 µg/mL compound 1", "result": 32, "unit": "µg/mL"},
      {"measurement": "MICantibiotic", "setting": "[4]; A. baumannii ATCC 17978, 50% FBS, zoliflodacin alone", "result": 64, "unit": "µg/mL"},
      {"measurement": "Potentiation", "setting": "[4]; A. baumannii ATCC 17978, [Mg2+] 25 mM, of zoliflodacin by 4 µg/mL compound 1", "result": "≥64-fold"},
      {"measurement": "FIC index", "setting": "[4]; [10]", "result": "x < 0.063"},
      {"measurement": "Interpretation", "setting": "[4]; [10]", "result": "Synergy (FIC indices of ≤0.5 is synergistic)"},
      {"measurement": "MICantibiotic + compound", "setting": "[4]; A. baumannii ATCC 17978, [Mg2+] 25 mM, zoliflodacin MIC with 4 µg/mL compound 1", "result": 4, "unit": "µg/mL"},
      {"measurement": "MICantibiotic", "setting": "[4]; A. baumannii ATCC 17978, [Mg2+] 25 mM, zoliflodacin alone", "result": ">32", "unit": "µg/mL"},
      {"measurement": "Potentiation", "setting": "[4]; A. baumannii ATCC 17978, [Mg2+] 0.4–0.5 mM, of zoliflodacin by 4 µg/mL compound 1", "result": "≥128-fold"},
      {"measurement": "FIC index", "setting": "[4]; [11]", "result": 0.258},
      {"measurement": "Interpretation", "setting": "[4]; [11]", "result": "Synergy (FIC indices of ≤0.5 is synergistic)"},
      {"measurement": "MICantibiotic + compound", "setting": "[4]; A. baumannii ATCC 17978, [Mg2+] 0.4–0.5 mM, zoliflodacin MIC with 4 µg/mL compound 1", "result": 0.031, "unit": "µg/mL"},
      {"measurement": "MICantibiotic", "setting": "[4]; A. baumannii ATCC 17978, [Mg2+] 0.4–0.5 mM, zoliflodacin alone", "result": 4, "unit": "µg/mL"},
      {"measurement": "FIC index", "setting": "[4]; [12]", "result": 0.258},
      {"measurement": "Interpretation", "setting": "[4]; [12]", "result": "Synergy (FIC indices of ≤0.5 is synergistic)"},
      {"measurement": "Interpretation", "setting": "[4]; A. baumannii ATCC 17978, antibiotic + compound 3", "result": "Additive (0.5 < × ≤ 4 is additive)"},
      {"measurement": "MICantibiotic + compound", "setting": "[4]; A. baumannii ATCC 17978, antibiotic MIC with 8 µg/mL (5 µM) compound 3", "result": 2, "unit": "µg/mL"},
      {"measurement": "MICantibiotic", "setting": "[4]; A. baumannii ATCC 17978, antibiotic alone", "result": "2 µg/mL and 4 µg/mL"},
      {"measurement": "Potentiation", "setting": "[4]; A. baumannii ATCC 17978, of antibiotic by 8 µg/mL (5 µM) compound 3", "result": 1, "unit": "fold"},
      {"measurement": "Interpretation", "setting": "[5]; antibiotic + compound 1", "result": "Synergy (FIC indices of ≤0.5 is synergistic)"},
      {"measurement": "MICantibiotic + compound", "setting": "[5]; antibiotic MIC with 8 µg/mL (5 µM) compound 1", "result": 4, "unit": "µg/mL"},
      {"measurement": "MICantibiotic", "setting": "[5]; antibiotic alone", "result": 32, "unit": "µg/mL"},
      {"measurement": "Potentiation", "setting": "[5]; of antibiotic by 8 µg/mL (5 µM) compound 1", "result": 8, "unit": "fold"}
    ]}
  ]
}
